From US20250221435A1, “Food Protein-Derived Peptides as Bitter Taste Blockers” (University of Manitoba, priority 2018, published 2025)
Where “and” joins values, the source holds several entries; their conditions need not be identical. Equal values may be shown once. Entries after “also recorded” stand apart in the source; their conditions may differ. Read-outs that look alike come from different tables or passages of the source.

Tests used:
[1] = 10 mM quinine solution; cited from earlier work
[2] = biological target: T1, T2R4 (Homo sapiens, UniProt Q9NYW5); experiment: Calcium mobilization in T2R4-expressing HEK 293T cell system; type: cell-based; conditions: for blocking of quinine-dependent calcium release: 1 mM quinine plus 5 mg/mL fraction or 1 mM synthesized peptide
T1 construct: expressed in transfected cells
T1 sequence (Q9NYW5 1-299): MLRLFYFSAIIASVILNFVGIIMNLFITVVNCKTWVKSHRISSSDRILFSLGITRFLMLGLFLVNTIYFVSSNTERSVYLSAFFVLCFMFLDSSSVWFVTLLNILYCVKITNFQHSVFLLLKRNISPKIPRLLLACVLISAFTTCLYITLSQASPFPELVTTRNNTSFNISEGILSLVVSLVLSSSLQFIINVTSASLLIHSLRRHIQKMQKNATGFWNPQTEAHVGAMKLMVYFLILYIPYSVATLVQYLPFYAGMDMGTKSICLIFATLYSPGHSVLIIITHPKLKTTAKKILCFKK
Method: Determination of cellular calcium mobilization. Determination of the potential bitter taste-activating or blocking activity of BPH was carried out by measuring intracellular Ca^2+ mobilization using Fluo-4 NW calcium assay kit as previously described.^3 Stable transfected HEK293 cells expressing T2R4 and G-alpha 16/44 or HEK293T cells expressing only G-alpha 16/44 were used as experimental and negative control group, respectively. Around 1×10^5 cells/well plated in the 96-well BD-falcon biolux plate and then incubated at 37° C. in a CO2 incubator for 16 h. After incubation, the culture medium was substituted (for 40 min at 37° C. in the CO2 incubator followed by 30 min incubation at room temperature) with Fluo-4 NW dye solution, which contained lyophilized dye in 10 mL of assay buffer (1× Hanks' balanced salt solution, 20 mM HEPES) and 100 μL 2.5 mM probenecid added to prevent dye leakage from cytosol. Calcium mobilization was measured in terms of relative fluorescence units (RFUs) using a Flexstation-3 microplate reader (Molecular Devices, CA, USA) at 525 nm, following 494 nm excitation. […] The basal intracellular calcium levels were measured for the first 20 s followed by addition of appropriate concentration of ligands for another 120 s. To get the absolute RFUs, the basal RFU before adding the ligand, which was labeled minimum value (Min) was deducted from the maximum RFU (Max) obtained after stimulating with the ligand (absolute RFUs=Max−Min). […] Data were collected from two independent experiments, each done in triplicate.

[3] = Estimation of bitter scores by electronic-tongue (e-tongue); conditions: 1 mM quinine mixed with 5 mg/mL hydrolysate or 59 nM BCML
Method: Estimation of bitter scores by electronic-tongue (e-tongue). Each BPH was dissolved in distilled water to give 0.5, 1.0, 2.5, 5.0, and 10.0 mg/mL concentrations followed by filtration first through a 0.45 μm filter disc and then a 0.2 μm filter. Bitter scores of filtered BPH solutions (20 mL) were evaluated using the Astree II E-tongue system (Alpha M.O.S., Toulouse, France). This system is a completely automated taste analyzer equipped with seven sensors, BD, EB, JA, JG, KA, OA, and JE, based on the ChemFET technology (Chemical modified Field Effect Transistor) to analyze liquid samples. Firstly, 0.01 M HCl was used to condition and calibrate sensors and the reference electrode repeatedly until stable signals were obtained for all seven sensors with minimal or no noise and drift. […] Thereafter, the PLS bitterness standard model was constructed using several bitter taste compounds with known bitter taste scores determined from human panelists, including 0.24 mM and 2.36 mM caffeine, 0.03 mM and 0.12 mM quinine, 0.44 mM and 0.88 mM prednisolone, as well as 3.31 mM and 19.85 mM paracetamol. […] The 5 mg/ml sample was determined as the maximum strength useful to evaluate BPH bitterness intensity and this concentration was subsequently used to obtain bitter scores. […]

[4] = biological target: T1, T2R4; conditions: known T2R4 bitter taste blocker, positive control; read-out: IC50 for quinine of known T2R4 bitter taste blocker; cited from earlier work
[5] = biological target: T2, T2R14 (Homo sapiens, UniProt Q9NYV8); experiment: Peptides and agonist competition calcium mobilization assays on T2R14; type: cell-based; conditions: for IC50: IC50 for T2R14 activated by diphenhydramine, diphenhydramine 0.5 mM, peptide 0.015 mM-1 mM, HEK293T cells stably expressing T2R14; for blocking of diphenhydramine-dependent T2R14 activation: competition calcium mobilization assay
T2 construct: expressed in transfected cells
T2 sequence (Q9NYV8 1-317): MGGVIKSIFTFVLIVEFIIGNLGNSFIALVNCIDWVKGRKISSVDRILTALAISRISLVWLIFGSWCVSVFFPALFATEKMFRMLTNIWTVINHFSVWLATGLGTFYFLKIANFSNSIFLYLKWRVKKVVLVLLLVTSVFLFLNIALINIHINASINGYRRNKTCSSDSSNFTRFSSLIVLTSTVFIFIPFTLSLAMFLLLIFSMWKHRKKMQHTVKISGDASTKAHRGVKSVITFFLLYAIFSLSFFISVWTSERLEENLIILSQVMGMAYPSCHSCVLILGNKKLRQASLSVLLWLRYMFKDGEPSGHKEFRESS
Method: FIG. 9. Peptides and agonist competition calcium mobilization assays on T2R14. HEK293T cells stably expressing T2R14 were treated with the agonist diphenhydramine (0.5 mM) and with increasing concentrations of Peptide 4 (ETSARHL) and Peptide 5 (AGDDAPRAVF) ranging from 0.015 mM-1 mM. Changes in intracellular calcium were measured (ΔRFUs), and IC50 values were calculated using GraphPad Prism 4.0. […] Data were collected from a minimum of two independent experiments carried out in triplicate.
To generalize the applicability of these peptides in blocking other T2Rs, we choose T2R14 as our next target.
Determination of cellular calcium mobilization. Determination of the potential bitter taste-activating or blocking activity of BPH was carried out by measuring intracellular Ca^2+ mobilization using Fluo-4 NW calcium assay kit as previously described.^3 Stable transfected HEK293 cells expressing T2R4 and G-alpha 16/44 or HEK293T cells expressing only G-alpha 16/44 were used as experimental and negative control group, respectively. Around 1×10^5 cells/well plated in the 96-well BD-falcon biolux plate and then incubated at 37° C. in a CO2 incubator for 16 h. After incubation, the culture medium was substituted (for 40 min at 37° C. in the CO2 incubator followed by 30 min incubation at room temperature) with Fluo-4 NW dye solution, which contained lyophilized dye in 10 mL of assay buffer (1× Hanks' balanced salt solution, 20 mM HEPES) and 100 μL 2.5 mM probenecid added to prevent dye leakage from cytosol. Calcium mobilization was measured in terms of relative fluorescence units (RFUs) using a Flexstation-3 microplate reader (Molecular Devices, CA, USA) at 525 nm, following 494 nm excitation. Based on the e-tongue data, BPH at 5 mg/mL, BCML at 59 nM and agonist quinine at 1 mM were used individually or in combination with peptides to determine activation of T2R4. BPH or BCML was then mixed with quinine (1 mM final concentration) to obtain 5 mg/mL or 59 nM, respectively and used to determine inactivation of T2R4. The basal intracellular calcium levels were measured for the first 20 s followed by addition of appropriate concentration of ligands for another 120 s. To get the absolute RFUs, the basal RFU before adding the ligand, which was labeled minimum value (Min) was deducted from the maximum RFU (Max) obtained after stimulating with the ligand (absolute RFUs=Max−Min). Next, the signals from the negative control group cells were deducted from the observed signal of experimental group cells to give ΔRFUs. Data were collected from two independent experiments, each done in triplicate. PRISM software version 4.03 (GraphPad Software, San Diego) was used for data analysis.

**Q.** For `Nc1ncnc2c1ncn2[C@H]1C[C@H](O)[C@@H](COP(=O)(O)OP(=O)(O)OP(=O)(O)O)O1` [dATP, 2-deoxyadenosine triphosphate], which “reduction in bitterness of quinine solution” value [1] is on record?
**A.** The value was 60%.

**Q.** With “AAYM: peptide AAYM identified from CHYMOTRYPSIN hydrolysate fraction CH-F4-5, chemically synthesized (synthesized bitter taste blocker)” as the compound, how does the “blocking of quinine-dependent calcium release” value ([2]; T2R4-expressing HEK 293T cells) read?
**A.** Its value is “suppressed quinine-dependent calcium release”.

**Q.** Which “reduction in bitterness of quinine solution” value [1] does the source give for cytosine monophosphate [CMP] here?
**A.** The value was 40%.

**Q.** For `NCCCC[C@@H](C(=O)O)N(CC(=O)O)CC(=O)O` [BCML, Nα,Nα-bis(carboxymethyl)-I-lysine], which “suppression of quinine bitterness intensity (e-tongue)” value [3] is on record?
**A.** The value was “most decrease”.

**Q.** And the IC50 [4]?
**A.** Its IC50 is 0.059 µM.

**Q.** With “AAMY: peptide AAMY identified from CHYMOTRYPSIN hydrolysate fraction CH-F4-5, chemically synthesized (synthesized bitter taste blocker)” as the compound, how does the “blocking of quinine-dependent calcium release” value ([2]; T2R4-expressing HEK 293T cells) read?
**A.** The value was “less calcium mobilization; also recorded: suppressed quinine-dependent calcium release”.

**Q.** Which “calcium mobilization (ΔRFU), sample alone” value ([2]; T2R4-expressing HEK 293T cells, hydrolysates 5 mg/mL, quinine 1 mM, peptides 1 mM) does the source give for `C=C[C@H]1C[N@@]2CC[C@H]1C[C@H]2[C@H](O)c1ccnc2ccc(OC)cc12` [Quinine, reference compound] here?
**A.** Its value is “highest activity”.

**Q.** Which IC50 [2] does the source give for `CC(C)[C@H](NC(=O)[C@H](C)NC(=O)[C@H](CCCNC(=N)N)NC(=O)[C@@H]1CCCN1C(=O)[C@H](C)NC(=O)[C@H](CC(=O)O)NC(=O)[C@H](CC(=O)O)NC(=O)CNC(=O)[C@H](C)N)C(=O)N[C@@H](Cc1ccccc1)C(=O)O` [AGDDAPRAVF] here?
**A.** Its IC50 is 85 µM.

**Q.** And the “blocking of quinine-dependent calcium release” value ([2]; T2R4-expressing HEK 293T cells)?
**A.** The value was “less calcium mobilization; also recorded: most effective blocker; also recorded: suppressed quinine-dependent calcium release”.

**Q.** What about the IC50 [5] of the same compound?
**A.** Its IC50 is ~100 µM and 118 µM.

**Q.** What about the “blocking of diphenhydramine-dependent T2R14 activation” value [5] of the same compound?
**A.** Its value is “effective in blocking”.

**Q.** With `CC(C)C[C@H](NC(=O)[C@H](Cc1c[nH]cn1)NC(=O)[C@H](CCCNC(=N)N)NC(=O)[C@H](C)NC(=O)[C@H](CO)NC(=O)[C@@H](NC(=O)[C@@H](N)CCC(=O)O)[C@@H](C)O)C(=O)O` [ETSARHL] as the compound, how does the “blocking of quinine-dependent calcium release” value ([2]; T2R4-expressing HEK 293T cells) read?
**A.** The value was “less calcium mobilization; also recorded: suppressed quinine-dependent calcium release; also recorded: most effective”.

**Q.** What about the IC50 [5] of the same compound?
**A.** Its IC50 is ~100 µM and 121 µM.

**Q.** And the “blocking of diphenhydramine-dependent T2R14 activation” value [5]?
**A.** Its value is “effective in blocking”.
